Numbers after ± are expanded uncertainties.
Legend:
[1] = refractive index (Na D-line) (dimensionless); details: 298.15 K; 101.33 kPa; Liquid; Standard Abbe refractometry
[2] = Liquid; for mass density: 298.15 K, 101.33 kPa, Vibrating tube method; for vapor or sublimation pressure: Closed cell (Static) method

OCCO [1,2-ethanediol]
refractive index [1]: 1.4312 ± 0.0003
mass density [2]: 1107.92 ± 0.09 kg/m3
vapor or sublimation pressure ([2]; 405.97 K): 10 ± 0.73 kPa
vapor or sublimation pressure ([2]; 406.07 K): 10 ± 0.73 kPa
vapor or sublimation pressure ([2]; 423.18 K): 20 ± 0.99 kPa
vapor or sublimation pressure ([2]; 441.92 K): 40 ± 1.6 kPa

OCCCCO [1,4-butanediol]
refractive index [1]: 1.4449 ± 0.0003
mass density [2]: 1013.04 ± 0.05 kg/m3
vapor or sublimation pressure ([2]; 437.48 K): 10 ± 0.73 kPa
vapor or sublimation pressure ([2]; 454.63 K): 20 ± 0.99 kPa
vapor or sublimation pressure ([2]; 473.22 K): 40 ± 1.6 kPa

OCCOCCO [diethylene glycol]
refractive index [1]: 1.4452 ± 0.0003
mass density [2]: 1112.56 ± 0.12 kg/m3
vapor or sublimation pressure ([2]; 445.07 K): 10 ± 0.82 kPa
vapor or sublimation pressure ([2]; 445.47 K): 10 ± 0.81 kPa
vapor or sublimation pressure ([2]; 464.36 K): 20 ± 1.1 kPa
vapor or sublimation pressure ([2]; 485.33 K): 40 ± 1.8 kPa

OCCOCCOCCO [triethylene glycol]
refractive index [1]: 1.4457 ± 0.0003
mass density [2]: 1120.7 ± 0.1 kg/m3
vapor or sublimation pressure ([2]; 480.39 K): 10 ± 0.88 kPa
vapor or sublimation pressure ([2]; 500.97 K): 20 ± 1.2 kPa
vapor or sublimation pressure ([2]; 524.64 K): 40 ± 2 kPa

Reference: the NIST ThermoML archive (doi:10.1021/je401020e)
